This is an account of results in patent US20110166132A1, “Gamma Secretase Modulators” (Amgen Inc., priority 2007, published 2011).

The structures appear in SMILES notation. Some results are limits rather than exact numbers.

In the experiment the target is T1, gamma secretase (Homo sapiens, UniProt P49768).
T1 construct: HEK293 cells stably expressing full length Amyloid Precursor Protein (APP); endogenous in cells; host or cells: HEK 293 cells stably expressing full length APP
The experiment can be described thus: GSM cell-based assay: Aβ 42 inhibition or reduction in HEK 293 cells over-expressing APP (sandwich ELISA). The settings on record: approximate IC50; HEK293 cells stably expressing full length APP, 24 hours incubation, 10-point dose response starting at 10 μM. From the text:
GSM cell-based assays were designed to measure the modulation of Aβ 42 from HEK 293 cells over-expressing APP.
Three simultaneous cell-based assays, namely Aβ 42 inhibition or reduction, Aβ 40 inhibition or reduction and a measurement of cell viability of the cells from which the Aβ 42/40 readout was obtained, together gave an interpretation of gamma secretase modulation (GSM). The assays measure Aβ 42 and Ab 40 from conditioned medium of test compound treated HEK 293 cells.
HEK293 cells stably expressing full length Amyloid Precursor Protein (APP) were plated at a density of 100K cells/well in 96 well plates (Costar). The cells were cultivated for 6 hours at 37° C. and 5% CO2 in DMEM supplemented with 10% FBS. The test compounds were then added to cells in 10-point dose response concentrations with the starting concentration being 10 μM. The compounds were diluted from stock solutions in DMSO and the final DMSO concentration of the test compounds on cells was 0.1%. After 24 hours of incubation with the test compounds the supernatant conditioned media was collected and the Aβ 42, Aβ 40 levels were determined using a sandwich ELISA. A cell viability test (CellTiter-Blue Cell Viability assay, Promega) on the cells from which the conditioned medium was harvested for Aβ 42 or Aβ 40 readouts gave an indication of cell survivability as a possible reason for false positive Aβ 42 or 40 reduction or inhibition readout. The IC50 of the compound (for either Aβ 42 or Aβ 40) was calculated from the percent of control or percent inhibition of Aβ 42 or Aβ 40 as a function of the concentration of the test compound.
The sandwich ELISA to detect Aβ 42 or Aβ 40 was performed in 96 well microtiter plates, which were pre-treated with goat anti-rabbit IgG (Pierce). The capture and detecting antibody pair that were used to detect Aβ 42 and Aβ 40 from cell supernatants were rabbit monoclonal Antibody 42 (RabMAb 42) and affinity purified polyclonal Antibody 40 pAB40 (Biosource) as capture antibodies and biotinylated 6E10 (Signet Labs Inc.) as detection antibody. The optimal concentration for RabMAb 42 was 1 μg/ml in Superblock/TBS (Pierce) that was supplemented with 0.05% Tween 20 (Sigma). The optimal concentration for the pAb40 antibody was 3 μg/ml in Superblock/TBS (Pierce) that was supplemented with 0.05% Tween 20 (Sigma). Optimal concentration for the detection antibody 6E10-biotinylated was 0.5 μg/ml in Superblock/TBS (Pierce) that had been supplemented with 2% normal goat serum and 2% normal mouse serum.
Cellular supernatants were incubated with the capture antibody for 16-20 hours at 4° C., followed by 3 wash steps in TBS-tween (0.05%). The detecting antibody incubation was for 3 hours at 4° C., again followed by the wash steps as described previously. The final readout of the ELISA is Time-Resolved Fluorescence (counts per minute) using Delfia reagents Streptavidin-Europium and Enhancement solutions (Perkin Elmer) and the EnVision Multilabel plate reader (Perkin Elmer).
With `Cc1cc(-c2ccc(NC(=O)Cc3n[nH]c4ccc(Br)cc34)cc2)ccn1` [Cpd 79, 2-(5-bromo-1H-indazol-3-yl)-N-(4-(2-methyl-4-pyridinyl)phenyl)acetamide], inhibition was half-maximal at 1.18 µM (IC50).

For the molecule `COc1cc(C(C)C(=O)Nc2ccc(-c3ccnc(C)c3)cc2)ccc1NC(C)C` (centres unmarked) [Cpd 575, 2-(3-methoxy-4-((1-methylethyl)amino)-phenyl)-N-(4-(2-methyl-4-pyridinyl)-phenyl)propanamide], half-maximal inhibition (IC50) required 1.52 µM.

On to `Cc1cc(-c2ccc(NC(=O)C(CCF)c3cccc(Br)c3)cc2)ccn1` (centres unmarked) [Cpd 129, 2-(3-bromophenyl)-4-fluoro-N-(4-(2-methyl-4-pyridinyl)phenyl)butanamide], for which the IC50 (in general, the concentration that gives 50% inhibition) is more than 10 µM.

For the molecule `CCCC(C(=O)Nc1ccc(-c2ccnc(C)c2)cc1)c1ccccc1` (centres unmarked) [Cpd 368, N-(4-(2-methyl-4-pyridinyl)phenyl)-2-phenylpentanamide], the IC50 is 2.65 µM.

In turn, `Cc1cc(-c2ccc(NC(=O)[C@H](C)c3cc(C(F)(F)F)cc(C(F)(F)F)c3)cc2)ccn1` [Cpd 1, (2R)-2-(3,5-bis(trifluoromethyl)phenyl)-N-(4-(2-methyl-4-pyridinyl)phenyl)-propanamide] yielded an IC50 of 0.256 µM.

On to `CSc1cccc(C(C)C(=O)Nc2ccc(-c3ccnc(C)c3)cc2)c1` (centres unmarked) [Cpd 142, N-(4-(2-methyl-4-pyridinyl)phenyl)-2-(3-(methylsulfanyl)phenyl)propanamide], for which it took 1.05 µM to reach half-maximal inhibition (IC50).

On to `Cc1cc(-c2ccc(NC(=O)C3CC3)cc2)ccn1` [Cpd 54], for which the IC50 was more than 10 µM.

Turning to `Cc1cc(-c2ccc(NC(=O)Cc3cccc(Cl)c3)cc2)ccn1` [Cpd 8, 2-(3-chlorophenyl)-N-(4-(2-methyl-4-pyridinyl)phenyl)acetamide], the IC50 is 0.79 µM.

Molecule `Cc1cc(-c2ccc(NC(=O)C(CC3CCC3)c3cccc(Br)c3)cc2)ccn1` (centres unmarked) [Cpd 124, 2-(3-bromophenyl)-3-cyclobutyl-N-(4-(2-methyl-4-pyridinyl)phenyl)propanamide] displayed an IC50 of 0.282 µM.

Take `Cc1cc(-c2ccc(NC(=O)C(C)c3cccc(N4CCOCC4)n3)cc2)ccn1` (centres unmarked) [Cpd 141]: half-maximal inhibition (IC50) was put at 8.57 µM.

The molecule `Cc1cc(-c2ccc(NC(=O)c3cccc(C#N)c3)cc2)ccn1` [Cpd 275] registered an IC50 of more than 10 µM.

For the molecule `COc1cc(NC(=O)C(C)c2cc(F)cc(C(F)(F)F)c2)ccc1-c1ccnc(C)c1` (centres unmarked) [Cpd 454, 2-(3-fluoro-5-(trifluoromethyl)phenyl)-N-(3-methoxy-4-(2-methyl-4-pyridinyl)-phenyl)propanamide], half-maximal inhibition (IC50) was put at 0.806 µM.

As to `Cc1cc(-c2ccc(NC(=O)c3cn4c(C)cccc4n3)cc2)ccn1` [Cpd 20], the IC50 was determined as 2.61 µM.

In turn, `Cc1cc(-c2ccc(NC(=O)C3CCc4ccccc43)cc2)ccn1` (centres unmarked) [Cpd 117] registered an IC50 of 3.86 µM.

In turn, `Cc1cc(-c2ccc(NC(=O)C(C)c3cccc(Nc4ccccc4)c3)cc2)ccn1` (centres unmarked) [Cpd 165, N-(4-(2-methyl-4-pyridinyl)phenyl)-2-(3-(phenylamino)phenyl)propanamide] yielded an IC50 of 1.16 µM.

In turn, `Cc1cc(-c2ccc(NC(=O)C3CCN(Cc4ccccc4)CC3)cc2)ccn1` [Cpd 312] had an IC50 of more than 10 µM.

`COc1ncc(-c2cccc(C(C)C(=O)Nc3ccc(-c4ccnc(C)c4)cc3)c2)cn1` (centres unmarked) [Cpd 156, 2-(3-(2-methoxy-5-pyrimidinyl)phenyl)-N-(4-(2-methyl-4-pyridinyl)phenyl)-propanamide] showed an IC50 of 0.246 µM.

Turning to `Cc1cc(-c2ccc(NC(=O)CC3CCCC3)cc2)ccn1` [Cpd 558, 2-cyclopentyl-N-(4-(2-methyl-4-pyridinyl)-phenyl)acetamide], the IC50 was more than 10 µM.

Take `Cc1cc(-c2ccc(NC(=O)C(CC(C)C)c3cccc(S(C)(=O)=O)c3)cc2)ccn1` (centres unmarked) [Cpd 145]: the IC50 is more than 10 µM.

Molecule `Cc1cc(-c2ccc(NC(=O)C(C)c3ccc(N(C)C(C)C)cc3)cc2)ccn1` (centres unmarked) [Cpd 481, 2-(4-(methyl(1-methylethyl)amino)phenyl)-N-(4-(2-methyl-4-pyridinyl)phenyl)-propanamide] showed a 50% inhibitory concentration (IC50) of 2.13 µM.
